Values of other authors, collected in patent US10894026B2, “Pharmaceutical compositions comprising a fumaric acid ester and method for the preparation thereof” (PHARMATHEN S.A., priority 2016, dated 2021).
Structures can show the parent of a compound that is named as a salt.

solubility in methanol (methanol): sparingly soluble
solubility in water (water): insoluble
Structure (SMILES): COC(=O)/C=C/C(=O)OC [Dimethyl fumarate, (E)-2-butenedioic acid dimethyl ester]
